Assay results from patent publication US7692030B2, “Conjugates of artemisinin-related endoperoxides and hydrazone derivatives for the treatment of cancer” (University of Washington, priority 2006, dated 2010).

Columns and labels:
Type in all cases: cell-based
SK-MEL-2 = test: NCI DTP human tumor cell line screen (SRB); settings: Melanoma, 10 μM, 48 h
In short: (§1)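 Percentage growth is calculated from three absorbances (time zero, untreated control, treated) in an SRB assay. Tumor cells receive 10 μM compound for 48 h at 37 °C; values below zero indicate net cell loss relative to Tz.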

NCI-H460 = test: NCI DTP human tumor cell line screen (SRB); settings: Non-Small Cell Lung Cancer, 10 μM, 48 h
In short: as §1

UO-31 = test: NCI DTP human tumor cell line screen (SRB); settings: Renal Cancer, 10 μM, 48 h
In short: as §1

MOLT-4 = test: NCI DTP human tumor cell line screen (SRB); settings: Leukemia, 10 μM, 48 h
In short: as §1

HT29 = test: NCI DTP human tumor cell line screen (SRB); settings: Colon Cancer, 10 μM, 48 h
In short: as §1

KM12 = test: NCI DTP human tumor cell line screen (SRB); settings: Colon Cancer, 10 μM, 48 h
In short: as §1

HCT-15 = test: NCI DTP human tumor cell line screen (SRB); settings: Colon Cancer, 10 μM, 48 h
In short: as §1

RPMI-8226 = test: NCI DTP human tumor cell line screen (SRB); settings: Leukemia, 10 μM, 48 h
In short: as §1

LOX IMVI = test: NCI DTP human tumor cell line screen (SRB); settings: Melanoma, 10 μM, 48 h
In short: as §1

SW-620 = test: NCI DTP human tumor cell line screen (SRB); settings: Colon Cancer, 10 μM, 48 h
In short: as §1

M14 = test: NCI DTP human tumor cell line screen (SRB); settings: Melanoma, 10 μM, 48 h
In short: as §1

NCI-H322M = test: NCI DTP human tumor cell line screen (SRB); settings: Non-Small Cell Lung Cancer, 10 μM, 48 h
In short: as §1

NCI-H522 = test: NCI DTP human tumor cell line screen (SRB); settings: Non-Small Cell Lung Cancer, 10 μM, 48 h
In short: as §1

EKVX = test: NCI DTP human tumor cell line screen (SRB); settings: Non-Small Cell Lung Cancer, 10 μM, 48 h
In short: as §1

SR = test: NCI DTP human tumor cell line screen (SRB); settings: Leukemia, 10 μM, 48 h
In short: as §1

TK-10 = test: NCI DTP human tumor cell line screen (SRB); settings: Renal Cancer, 10 μM, 48 h
In short: as §1

786-0 = test: NCI DTP human tumor cell line screen (SRB); settings: Renal Cancer, 10 μM, 48 h
In short: as §1

HOP-92 = test: NCI DTP human tumor cell line screen (SRB); settings: Non-Small Cell Lung Cancer, 10 μM, 48 h
In short: as §1

MALME-3M = test: NCI DTP human tumor cell line screen (SRB); settings: Melanoma, 10 μM, 48 h
In short: as §1

SK-OV-3 = test: NCI DTP human tumor cell line screen (SRB); settings: Ovarian Cancer, 10 μM, 48 h
In short: as §1

OVCAR-3 = test: NCI DTP human tumor cell line screen (SRB); settings: Ovarian Cancer, 10 μM, 48 h
In short: as §1

ACHN = test: NCI DTP human tumor cell line screen (SRB); settings: Renal Cancer, 10 μM, 48 h
In short: as §1

NCI/ADR-RES = test: NCI DTP human tumor cell line screen (SRB); settings: Breast Cancer, 10 μM, 48 h
In short: as §1

[1] = system: approximately 60 human tumor cell lines; test: NCI DTP human tumor cell line screen, whole panel statistics
Procedure: Representative compounds of the invention, prepared as described in EXAMPLES 1-6, were submitted to the Developmental Therapeutics Program of the United States National Cancer Institute (NCl) to screen for anti-cancer activity. The anti-cancer activities of the six compounds were tested against approximately 60 human tumor cell lines representing leukemia, melanoma, and cancers of the lung, colon, breast, ovary, kidney, prostate, and brain. The following screening methodology was provided by the NCl. […] For experimental screens, cells were inoculated into 96 well microtiter plates in 100 μL at plating densities ranging from 5,000 to 40,000 cells/well depending on the doubling time of individual cell lines. After cell inoculation, the microtiter plates were incubated at 37° C., 5% carbon dioxide, 95% air and 100% relative humidity for 24 hours prior to addition of the compounds. After 24 hours of incubation, two plates of each cell line were fixed in situ with trichloroacetic acid (TCA) to represent a measurement of the cell population for each cell line at the time of compound addition (Tz). The compounds were solubilized in dimethyl sulfoxide at 400-fold the desired final maximum test concentration and stored frozen prior to use. At the time of drug addition, frozen aliquots of the compounds thawed and diluted with complete medium containing 50 μg/ml gentamicin. Aliquots of 100 μl of these different compound dilutions were added to the appropriate microtiter wells already containing 100 μl of medium, resulting in the required final compound concentration of 10 μM. Following compound addition, the plates were incubated for an additional 48 h at 37° C., 5% carbon dioxide, 95% air, and 100% relative humidity. For adherent cells, the assay was terminated by the addition of cold TCA. Cells were fixed in situ by the gentle addition of 50 μl of cold 50% (w/v) TCA (final concentration, 10% TCA) and incubated for 60 minutes at 4° C. The supernatant was discarded, and the plates were washed five times with tap water and air dried. Sulforhodamine B (SRB) solution (100 μl) at 0.4% (w/v) in 1% acetic acid was added to each well, and plates were incubated for 10 minutes at room temperature. After staining, unbound dye was removed by washing five times with 1% acetic acid and the plates were air dried. Bound stain was subsequently solubilized with 10 mM trizma base, and the absorbance was read on an automated plate reader at a wavelength of 515 nm. For suspension cells, the methodology was the same except that the assay was terminated by fixing settled cells at the bottom of the wells by gently adding 50 μl of 80% TCA (final concentration, 16% TCA). Using the three absorbance measurements [time zero, (Tz), control growth, (C), and test growth in the presence of compound (Ti)], the percentage growth was calculated at each of the compound concentrations levels. Percentage growth inhibition was calculated with the following algorithms: [(Ti−Tz)/(C−Tz)]×100 for concentrations for which Ti>/=Tz [(Ti−Tz)/Tz]×100 for concentrations for which Ti<Tz The results of the NCl in vitro anticancer screening with six compounds against various human tumor cell lines are presented below in Tables 2-7. […] The growth percent mean, delta, and range for each compound are given below.

[2] = over all cell lines tested, 10 μM, 48 h

CC1CCC2C(C)C(OCc3ccc(C(=O)NN=Cc4ccccc4O)nc3)OC3OC4(C)CCC1C32OO4 (stereo not drawn) [ART-Pyr-Sal, N′-(2-hydroxybenzylidene)-5-(dihydroxyartemisinin-methyl)-2-pyridine carbohydrazide]
Growth Percent (SK-MEL-2): −23.42% | Growth Percent (NCI-H460): 0.12% | Growth Percent (UO-31): 0.04% | Growth Percent (MOLT-4): 10.13% | Growth Percent (HT29): 29.61% | Growth Percent (KM12): 29.31% | Growth Percent (HCT-15): 21.89% | Growth Percent (RPMI-8226): 13.76% | Growth Percent (LOX IMVI): 2.20% | Growth Percent (SW-620): 26.43% | Growth Percent (M14): −9.91% | Growth Percent (NCI-H322M): 31.89% | Growth Percent (NCI-H522): 10.19% | Growth Percent (EKVX): 32.52% | Growth Percent (SR): −30.14% | Growth Percent (TK-10): 31.03% | Growth Percent (786-0): −17.58% | Growth Percent (HOP-92): 30.70% | Growth Percent (MALME-3M): 8.61% | Growth Percent (SK-OV-3): 11.40% | Growth Percent (OVCAR-3): 35.18% | Growth Percent (ACHN): 10.64% | Growth Percent (NCI/ADR-RES): 6.72% | inhibitory activities against cancer cells ([1]; DTP human tumor cell line screen, non-small cell lung, colon, breast, ovarian, leukemia, renal, melanoma, prostate, CNS cancer): inhibitory activities against several types of cancer cells | mean growth percent ([1]; mean over all cell lines tested, 10 μM, 48 h): 12.83% | delta value (growth percent) [1, 2]: 42.97 | range (growth percent) [1, 2]: 85.3
